Patent US20030166531A1, “Methods for modulating an immune response by modulating the interaction between CTLA4 and PP2A” (Genetics Institute, Inc., priority 2001, published 2003)

Key:
IL-2 gene transcription = test: Luciferase reporter assay under IL-2 promoter/enhancer in CTLA4-transfected Jurkat T cells stimulated with SEE and APCs; assay type: cell-based; details: doxycycline-induced Jurkat cells, TCR-CTLA4 co-ligation with SEE and APCs, at maximal RLU response
Protocol: FIGS. 2A-2B depict the inhibition of IL-2 promoter/enhancer controlled luciferase reporter gene transcription by wild type (FIG. 2A) or K-less (FIG. 2B) CTLA4 molecules. Wild type or K-less CTLA4-transfected T cells were stimulated for 4 hours with antigen presenting cells and increasing concentrations of SEE antigen in the absence (upper data points) or presence (lower data points) of doxycycline (5 μg/ml). Cells were lysed and a luciferase assay was performed.
The panel of Jurkat T cells transfected with a regulatable, doxycycline sensitive CTLA4 cDNA has been previously described (Carreno, B. M. et al. (2000) J. Immunol. 165:1352-1356; Baroja, M. L. et al. (2000) J. Immunol. 164:49-55). A luciferase reporter cDNA under the control of the interleukin-2 promoter and enhancer elements was transfected in these cells, and clones isolated after limiting dilution were used for these experiments. A 0.45 lymphoblastoid B cell line that expresses HLA-DR1 and B7.1 was also used. Both cell lines were cultured under standard conditions.
Doxycycline treated Jurkat T cells (0.25×10^6 cells/group) were stimulated for 4 hours with 0.45 lymphoblastoid B cells (ratio 2:1) preincubated overnight with different concentrations of SEE. Luciferase assays were performed using the Promega Luciferase Assay System (Promega, Madison, Wis.). […]

[1] = accumulates in filter feeding organisms such as shellfish; cited from earlier work
[2] = target: mutant K-less CTLA4 (K152A/K155A/K156A) expressed in doxycycline-induced Jurkat T cells (UniProt P16410); test: cell-based or functional assay
Chain of UniProt P16410 (P16410 36-223, stated change not applied): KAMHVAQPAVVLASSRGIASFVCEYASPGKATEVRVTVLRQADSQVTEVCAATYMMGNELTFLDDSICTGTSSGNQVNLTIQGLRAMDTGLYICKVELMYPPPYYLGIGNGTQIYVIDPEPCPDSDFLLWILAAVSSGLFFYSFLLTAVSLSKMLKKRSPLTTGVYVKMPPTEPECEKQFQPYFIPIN

wild type CTLA4: wild type CTLA4 expressed from a doxycycline-regulatable cDNA in transfected Jurkat T cells
inhibition of luciferase activity (IL-2 promoter/enhancer reporter) (IL-2 gene transcription): 35-55%

C=C1[C@@H](O)[C@@H]2O[C@]3(CC[C@H](/C=C/[C@@H](C)[C@@H]4CC(C)=C[C@@]5(O[C@H](C[C@@](C)(O)C(=O)O)CC[C@H]5O)O4)O3)CC[C@H]2O[C@@H]1[C@@H](O)C[C@H](C)[C@H]1O[C@@]2(CCCCO2)CC[C@H]1C [okadaic acid]
toxicity when consumed by humans [1]: causes diarrhetic shellfish poisoning

endogenous PP2AA (65 kD regulatory subunit of PP2A) of Jurkat T cells (from UniProt P30153 2-589)
inhibition of luciferase activity (IL-2 promoter/enhancer reporter) upon TCR-CTLA4 co-ligation [2]: 70 to 80%
